Measured values reported in US6420393B1, “Cyclopentabenzofuran derivatives and their use” (Bayer Aktiengesellschaft, priority 1998, dated 2002).
Read-outs that look alike come from different tables or passages of the source.

Assays:
[1] = system: NF-κB-mediated TNFα synthesis in human monocytes; assay: cells; assay type: cell-based; conditions: Monocyte, 100 nM PMA, read-out: IC50 value after PMA stimulus (TNFα synthesis)
[2] = system: NF-κB-mediated TNFα synthesis in human monocytes; assay: cells; assay type: cell-based; conditions: Monocyte, LPS 125 ng/ml, 18 hours, TNFα ELISA, read-out: IC50 (inhibition of NF-κB-mediated TNFα synthesis)
[3] = system: human tissue factor promoter (luciferase) in RAW-A3 cells (RAW 264.7 transfectant); assay: Inhibition of NF-κB-mediated expression of the human tissue factor gene: promoter-luciferase reporter in RAW-A3 monocyte cells; assay type: cell-based; conditions: read-out: IC50 (tissue factor promoter-driven luciferase activity)
Procedure: Inhibition of the NF-κB-mediated Gene Expression of the Human Tissue Factor Gene in Monocytes
Therefore, for the further detection of the inhibition of the NFκB-mediated gene expression by the inhibitors according to the invention, the following biological test was carried out:
The promoter fragment of the human tissue factor gene which contains the NF-κB binding sequence was cloned with oligonucleotide primers of the sequence 5′-TCCCTCGAGATCTCCCAGAGGCAAACTGCCAGAT-3′ (5′ primer of position −925) and 5′-TCCTCGAGCCATGGCTACCAGTTGGGCGGCGAGATC-3′ (3′ primer containing the ATG start codon of the coding sequence of the tissue factor gene) by means of the polymerase chain reaction (PCR) and fused by means of an NcoI/XhoI cloning with the luciferase start codon in the plasmid pGL3-basic vector (Promega Corp. 2800 Woods Hollow Road, Madison, Wis. 53711-5399 USA). […]
After a further 6 hours, the culture supernatant is aspirated and the cells are processed for the measurement of the luciferase activity according to the procedure of the “Luciferase Assay System” (Technical Bulletin of Promega, 2800 Woods Hollow Road, Madison, Wis. 53711-5399 USA. Products E4030, E1483, E1501). The cell lyzate is incubated with the luciferase assay substrate and measured in a luminometer to measure the emitted light. […]

[4] = system: ELAM-1 expression in HUVECs; assay: TNF-induced expression of ELAM-1 on HUVEC surface (FACS, anti-ELAM-1 antibody); assay type: cell-based, human
Procedure: Inhibition of the NF-κB-mediated Gene Expression of the Adhesion Protein ELAM-1 to Human Umbilical Cord Endothelial Cells (HUVEC)
(§1) The influence of compound I-3-R on the expression of ELAM-1 was checked in two different test batches. In one functional batch, the adhesion of human neutrophils to TNF-α-stimulated HUVEC cells was measured. The expression of ELAM-1 on the surface of the HUVECs was determined using a fluorescence-labeled ELAM-1-specific monoclonal antibody by means of FACS (cell sorting) analysis.
Experimental Procedure Quantitative Measurement of the TNF-induced Expression of ELAM-1 in HUVECs
Umbilical cord endothelial cells (HUVEC) were cultured as described above and incubated for 4 hours in the presence or absence of test substances in the presence or absence of 10 ng/ml of TNF. […] After centrifuging and washing again, the cells were taken up in 1 ml of PBS plus 1% BSA and measured at 488 nm in a flow cytometer (Becton and Dickinson). The intensity of the fluorescence as a function of bound anti-ELAM-1 antibody per cell is measured by this process. 5000 cells were measured for each value.

[5] = system: adhesion of human neutrophils to TNF-α-stimulated HUVEC cells; assay: ELAM-dependent adhesion of human neutrophils to TNF-α-stimulated HUVEC; assay type: cell-based
Procedure: as §1
Experimental Procedure: ELAM-dependent Neutrophil Adhesion to Endothial Cells
The neutrophils were isolated from human blood (100 ml). To this end, 3.5 ml of Polyprep was introduced into a centrifuge bucket and carefully coated with 5 ml of blood. After centrifuging at 2100 min^−1 for 30 minutes, the neutrophil band in the center of the centrifuge bucket was aspirated. After 1:2 dilutions in Clonetics endothelial cell basal medium (EBM), the neutrophils were again centrifuged at 1000 min^−1 for 20 minutes and then made up to a cell concentration of 10^6 cells/ml.
The umbilical cord endothelial cells were grown to confluence in EBM+10% FCS in 96 well microtiter plates. At the start of the experiment, the medium was replaced by EBM without FCS and the experimental substances then employed. After 20 minutes, the HUVECs were stimulated using 10 nM TNF-α. […] The fluorescence of the adherent neutrophils was then measured in a fluorescence photometer.

[6] = system: interleukin-2 promoter (luciferase) in SS-1 cell line; assay: Inhibition of interleukin-2 synthesis: interleukin-2 promoter-luciferase reporter cell line (SS-1), PMA/ionomycin induced; assay type: cell-based; conditions: IL-2 promoter reporter cell line, PMA 5 ng/ml + ionomycin, 24 hours; read-out: IC50 (inhibition of induction of luciferase activity to 50%)
Source text: Inhibition of Interleukin-2 Synthesis
For the testing of the inhibitory action of cyclopentabenzene derivatives on interleukin-2 synthesis, a receptor gene cell line was used which contains the interleukin-2 promoter coupled to the luciferase gene. The promoter contains the DNA sequence from −480 to +4. The vector employed is pGL3; the starting cell line in which the total construct has been stably transfected is SS-1. The culture medium for this cell line was RPMI 1640 (Gibco, Rockille). It additionally contained: 100 μg/ml of streptomycin, 100 U/ml of penicillin, 2 mM L-glutamine, 10% heat-inactivated FBS and 800 μg/ml of G418 sulfate.
The reporter gene test cell line was inoculated into 96-well plates to 1×10^6 cells per well in Phenol Red-free RPMI with the additives and incubated at 37° C. in an atmosphere of 5% CO2, 95% air with phorbol 12-myristate 13-acetate (PMA; 5 ng/ml) and ionomycin ([…]; 0.4 μg/ml) for 24 hours. The test substances were added simultaneously with PMA.
For the generation of the luminescence, LucLite™ solution (Packard, Meriden, Conn.) was added to a concentration of 100 μl/well and the luminescence was measured in a luminometer (Luminoskan, Labsystems) immediately after addition.

In the case of COc1ccc([C@@]23Oc4cc(OC)cc(OC)c4[C@]2(O)[C@@H](O)C[C@H]3c2ccccc2)cc1 (racemic) [Example I-1, (1α,3α,3aα,8bα)-3,3a-dihydro-6,8-dimethoxy-3a-(4-methoxyphenyl)-3-phenyl-1H-cyclopenta[b]benzofuran-1,8b(2H)-diol], the IC50 [1] is reported as 0.1 µM, the IC50 [2] is reported as 0.5 µM and the IC50 ([3]; RAW264.7, RAW-A3 cells, induction with 15% serum, 6 hours) is reported as 20 µM.

For COc1ccc([C@@]23Oc4cc(OC)cc(OC)c4[C@]2(O)[C@H](O)C[C@H]3c2ccccc2)cc1 (racemic) [Example I-3-R], the “Completeness of inhibition of ELAM-1 expression” value ([4]; HUVEC, 10 ng/ml TNF, 4 hours, FACS, all concentrations investigated) was “completely inhibited at none of the concentrations investigated”, the “Inhibition of expression of ELAM-1 on the cell surface (maximum inhibition)” value ([4]; TNF-α-stimulated HUVECs, inhibited to 50%) was 50% and the IC50 [2] was 0.1 µM. The “Inhibition of adhesion of neutrophils to TNF-α-stimulated HUVECs” value ([5]; 10 nM TNF-α, 4 hours, inhibited to 50%) was 50%, the “Concentration at which maximum inhibition of cell adhesion was determined” value ([5]; neutrophil adhesion to TNF-α-stimulated HUVECs) was 50 nM and the IC50 [6] was 0.005 to 0.01 µM.

Compound COC(=O)CN[C@@H]1C[C@@H](c2ccccc2)[C@]2(c3ccc(OC)cc3)Oc3cc(OC)cc(OC)c3[C@]12O [Example I-5, methyl (1α,3β,3aβ,8bβ)-N-(3,3a-dihydro-6,8-dimethoxy-3a-(4-methoxyphenyl)-3-phenyl-cyclopenta[b]benzofuran-8b(2H)-ol-1-yl)-2-aminoacetate] has an IC50 [1] of 0.09 µM, an IC50 [2] of 0.5 µM and an IC50 ([3]; RAW264.7, 6 h) of 2 µM.
